Reference: US20180325889A1, “IMMUNOREGULATORY AGENTS” (FLEXUS BIOSCIENCES, INC., priority 2014, published 2018)

What follows are compounds tested against T1, human IDO1/HEK293 cells (Homo sapiens, UniProt P14902) (assay: HEK Human IDO-1 cell-based IDO inhibition assay (kynurenine production)). Conditions: HEK293 cells stably expressing human IDO1, 20 hours incubation, absorbance at 490 nm; read-out: HEK Human IDO-1 Bio Activity (IDO IC50).
T1 construct: expressed in transfected cells
Experimental: They were cultured in medium (DMEM with 10% FBS) containing 1 mg/ml G418 for two weeks.
The human IDO1/HEK293 cells were seeded at 10,000 cells per 50 μL per well with RPMI/phenol red free media contains 10% FBS in a 384-well black wall clear bottom tissue culture plate (Matrix Technologies LLC) 100 nL of certain concentration of compound was then added to each well using ECHO liquid handling systems. The cells were incubated for 20 hours in 37° C. incubator with 5% CO2.
The compound treatments were stopped by adding trichloroacetic acid (Sigma-Aldrich) to a final concentration at 0.2%. The cell plate was further incubated at 50° C. for 30 minute. The equal volume supernatant (20 μL) and 0.2% (w/v) Ehrlich reagent (4-dimethylaminobenzaldehyde, Sigma-Aldrich) in glacial acetic acid were mixed in a new clear bottom 384-well plate. This plate was then incubated at room temperature for 30 minute. The absorbance at 490 nm was measured on Envision plate reader.

T1 sequence (P14902 whole entry): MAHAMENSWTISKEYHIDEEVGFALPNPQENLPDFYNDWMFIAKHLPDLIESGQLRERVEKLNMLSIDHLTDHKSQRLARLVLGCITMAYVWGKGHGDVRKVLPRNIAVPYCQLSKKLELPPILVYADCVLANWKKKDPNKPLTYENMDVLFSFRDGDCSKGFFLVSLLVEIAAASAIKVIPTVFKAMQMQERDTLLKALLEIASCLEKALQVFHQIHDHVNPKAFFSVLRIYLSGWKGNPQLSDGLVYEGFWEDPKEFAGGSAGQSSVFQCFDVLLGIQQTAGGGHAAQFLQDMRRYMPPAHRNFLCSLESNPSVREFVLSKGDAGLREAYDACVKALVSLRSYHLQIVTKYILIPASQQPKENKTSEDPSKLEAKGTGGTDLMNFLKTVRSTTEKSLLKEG

Compound | IC50 [nM]
C[C@@H](NC(=O)c1cccc(-c2ccccc2)c1)[C@H]1CC[C@@H](c2ccnc3ccc(F)cc32)CC1 [Example 61, N-((R)-1-((1s,4S)-4-(6-fluoroquinolin-4-yl)cyclohexyl)ethyl)-[1,1′-biphenyl]-3-carboxamide] | < 50
C[C@@H](NC(=O)c1ccc(-c2cnc(C#N)nc2)cc1)[C@H]1CC[C@@H](c2ccnc3ccc(F)cc32)CC1 [Example 240, 4-(2-cyanopyrimidin-5-yl)-N-((R)-1-((1s,4S)-4-(6-fluoroquinolin-4-yl)cyclohexyl)ethyl)benzamide] | < 2000
O=C(Nc1ccc(F)cc1)N[C@H]1CC[C@H](c2ccnc3ccc(F)cc32)CC1 [Example 124, 1-(4-fluorophenyl)-3-(trans-4-(6-fluoroquinolin-4-yl)cyclohexyl)urea] | < 50
COc1ccc(-c2ccc(C(=O)N[C@H](C)[C@H]3CC[C@@H](c4ccnc5ccc(F)cc54)CC3)nc2)cc1F [Example 178, 5-(3-fluoro-4-methoxyphenyl)-N-((R)-1-(cis-4-(6-fluoroquinolin-4-yl)cyclohexyl)ethyl)picolinamide] | < 250
(R)-1-(cis-4-(6-fluoroquinolin-4-yl)cyclohexyl)-N-methylethanamine [Example 194] | < 50
COc1ccc(S(=O)(=O)N[C@H](C)[C@H]2CC[C@@H](c3ccnc4ccc(F)cc43)CC2)cc1 [Example 46, N-((R)-1-((1s,4S)-4-(6-fluoroquinolin-4-yl)cyclohexyl)ethyl)-4-methoxybenzenesulfonamide] | < 2000
C[C@@H](NC(=O)c1ccc(-c2cn(C)cn2)cc1)[C@H]1CC[C@@H](c2ccnc3ccc(F)cc32)CC1 [Example 235, N-((R)-1-((1s,4S)-4-(6-fluoroquinolin-4-yl)cyclohexyl)cthyl)-4-(1-methyl-1H-imidazol-4-yl)benzamide] | < 50
C=CC[C@@H](NC(=O)c1ccc(-c2ccccc2)cc1)[C@H]1CC[C@@H](c2ccnc3ccc(F)cc32)CC1 [Example 199, N—((R)-1-((is, 4S)-4-(6-fluoroquinolin-4-yl)cyclohexyl)but-3-en-1-yl)-[1,1′-biphenyl]-4-carboxamide] | < 2000
Cc1cnccc1C1CCC(C(C)NC(=O)c2ccc(Cl)cc2)CC1 (stereo not drawn) [Example 160a, 4-chloro-N-(1-(4-(3-methylpyridin-4-yl)cyclohexyl)ethyl)benzamide] | < 50
Cc1nccc(C2CCC(C(C)NC(=O)c3ccc(Cl)cc3)CC2)c1C (stereo not drawn) [Example 159a, 4-chloro-N-(1-(4-(2,3-dimcthylpyridin-4-yl)cyclohexyl)ethyl)benzamide] | < 50
CCC(NC(=O)c1ccc(Cl)cc1)C1CCC(c2cccc(C(F)F)n2)CC1 (single isomer, unassigned) [Example 231c, 4-chloro-N-(1-(4-(6-(difluoromethyl)pyridin-2-yl)cyclohexyl)propyl)benzamide] | < 2000
C[C@@H](NC(=O)c1ccc(-c2ccccc2)cc1)[C@H]1CC[C@@H](c2ccnc3ccc(F)cc32)CC1 [Example 70, N—((R)-1-((1s,4S)-4-(6-fluoroquinolin-4-yl)cyclohexyl)ethyl)-[1,1′-biphenyl]-4-carboxamide] | < 50
C[C@@H](NC(=O)c1ccc(-c2ncc(C#N)s2)cc1)[C@H]1CC[C@@H](c2ccnc3ccc(F)cc32)CC1 [Example 253, 4-(5-cyanothiazol-2-yl)-N-((R)-1-((1s,4S)-4-(6-fluoroquinolin-4-yl)cyclohexyl)ethyl)benzamide] | < 50
CCC(NC(=O)c1ccc(Cl)cc1)[C@H]1CC[C@@H](Oc2ccncc2)CC1 (mixture of isomers) [Example 77a, (±)-4-Chloro-N-(1-((cis)-4-(pyridin-4-yloxy)cyclohexyl)propyl)benzamide] | < 250
C[C@@H](NC(=O)c1ccc(-c2ccc(C(C)(C)O)cc2)cc1)[C@H]1CC[C@@H](c2ccnc3ccc(F)cc32)CC1 [Example 242, N-((R)-1-((1s,4S)-4-(6-fluoroquinolin-4-yl)cyclohexyl)ethyl)-4′-(2-hydroxypropan-2-yl)biphenyl-4-carboxamide] | < 250
CC(NC(=O)c1ccc(Cl)cc1)C1CCC(c2ccc(C(F)(F)F)nc2)CC1 (single isomer, unassigned) [Example 218, 4-chloro-N-(1-(4-(6-(trifluoromethyl)pyridin-3-yl)cyclohexyl)ethyl)benzamide] | < 2000
C[C@@H](NC(=O)c1cc(Cl)cc(Cl)c1)[C@H]1CC[C@@H](c2ccnc3ccc(F)cc32)CC1 [Example 66, 3,5-dichloro-N-((R)-1-((1s,4S)-4-(6-fluoroquinolin-4-yl)cyclohexyl)ethyl)benzamide] | < 50
CC(NC(=O)c1ccc(Cl)cc1)C1CCC(c2ccc(C(F)(F)F)nc2)CC1 (single isomer, unassigned) [Example 219, 4-chloro-N-(1-(4-(6-(trifluoromethyl)pyridin-3-yl)cyclohexyl)ethyl)benzamide] | < 250
COc1nccc(-c2ccc(C(=O)N[C@H](C)[C@H]3CC[C@@H](c4ccnc5ccc(F)cc54)CC3)cc2)n1 [Example 236, N-((R)-1-((1s,4S)-4-(6-fluoroquinolin-4-yl)cyclohexyl)ethyl)-4-(2-methoxypyrimidin-4-yl)benzamide] | < 50
COc1ccc(CN[C@H]2CC[C@H](c3ccccc3)CC2)cc1 [Example 97, trans-N-(4-Methoxybenzyl)-4-phenylcyclohexanamine] | < 250
C[C@@H](NC(=O)c1ccc(F)cc1)[C@H]1CC[C@@H](c2ccnc3ccc(F)cc32)CC1 [Example 60, 4-fluoro-N-((R)-1-((1s,4S)-4-(6-fluoroquinolin-4-yl)cyclohexyl)ethyl)benzamide] | < 50
Cc1c(C2CCC(C(C)NC(=O)c3ccc(-c4ccccc4)cc3)CC2)ccnc1F (single isomer, unassigned) [Example 223, N-(1-(4-(2-fluoro-3-methylpyridin-4-yl)cyclohexyl)ethyl)-[1,1′-biphenyl]-4-carboxamide] | < 50
Fc1ccc2nccc([C@H]3CC[C@H](NCc4ccccc4)CC3)c2c1 [Example 130, trans-N-Benzyl-4-(6-fluoroquinolin-4-yl)cyclohexanamine] | < 250

Further lines, results first:

IC50 [nM] | Compound
< 50 | CCC(NC(=O)c1ccc(-c2ccccc2)cc1)C1CCC(c2ccnc3ccc(F)cc23)CC1 (stereo not drawn) [Example 258, N-(1-(4-(6-fluoroquinolin-4-yl)cyclohexyl)propyl)bi-phenyl-4-carboxamide]
< 250 | C[C@@H](NC(=O)c1ccc(-c2ncnn2C)cc1)[C@H]1CC[C@@H](c2ccnc3ccc(F)cc32)CC1 [Example 251, N-((R)-1-((1s,4S)-4-(6-fluoroquinolin-4-yl)cyclohexyl)ethyl)-4-(1-methyl-1H-1,2,4-triazol-5-yl)benzamide]
< 50 | CCC(NC(=O)c1ccc(Cl)cc1)C1CCC(c2ccnc3ccc(F)cc23)CC1 (single isomer, unassigned) [Example 164c, 4-Chloro-N-(1-(4-(6-fluoroquinolin-4-yl)cyclohexyl)propyl)benzamide]
< 50 | C[C@@H](NC(=O)c1cccc(F)c1)[C@H]1CC[C@@H](c2ccnc3ccc(F)cc32)CC1 [Example 55, 3-fluoro-N-((R)-1-((1S,4S)-4-(6-fluoroquinolin-4-yl)cyclohexyl)ethyl)benzamide]
< 50 | C[C@@H](NC(=O)c1ccccc1F)[C@H]1CC[C@@H](c2ccnc3ccc(F)cc32)CC1 [Example 54, 2-fluoro-N-((R)-1-((1s,4S)-4-(6-fluoroquinolin-4-yl)cyclohexyl)ethyl)benzamide]
< 2000 | CC(NC(=O)c1ccc(Cl)cc1)C1CCC(c2ccnc(C(F)(F)F)c2)CC1 (single isomer, unassigned) [Example 212, 4-chloro-N-(1-(4-(2-(trifluoromcthyl)pyridin-4-yl)cyclohexyl)ethyl)benzamide]
< 50 | CCC(NC(=O)c1ccc(Cl)cc1)C1CCC(c2ccnc3ccc(F)cc23)CC1 (single isomer, unassigned) [Example 164d, 4-Chloro-N-(1-(4-(6-fluoroquinolin-4-yl)cyclohexyl)propyl)benzamide]
< 2000 | CC(C(=O)N[C@H]1CC[C@@H](c2ccnc3ccc(F)cc32)CC1)c1ccc(Cl)cc1 (stereo partly drawn) [Example 148, 2-(4-chlorophenyl)-N-(cis-4-(6-fluoroquinolin-4-yl)cyclohexyl)propanamide]
< 50 | C[C@@H](NC(=O)c1ccc(-n2ccnc2)cc1)[C@H]1CC[C@@H](c2ccnc3ccc(F)cc32)CC1 [Example 196, N-((R)-1-(cis-4-(6-fluoroquinolin-4-yl)cyclohexyl)ethyl)-4-(1H-imidazol-1-yl)benzamide]
< 50 | CCC(NC(=O)c1ccc(C#N)cc1)C1CCC(c2ccnc3ccc(F)cc23)CC1 (single isomer, unassigned) [Example 165b, 4-Cyano-N-(1-(4-(6-fluoroquinolin-4-yl)cyclohexyl)propyl)benzamide]
< 250 | CC[C@H](NC(=O)c1ccc(Cl)cc1)[C@H]1CC[C@@H](c2cnc3ccccc3c2)CC1 (single isomer, unassigned) [Example 203b]
< 2000 | COc1cccc(S(=O)(=O)N[C@H](C)[C@H]2CC[C@@H](c3ccnc4ccc(F)cc43)CC2)c1 [Example 45, N-((R)-1-((1s,4S)-4-(6-fluoroquinolin-4-yl)cyclohexyl)ethyl)-3-methoxybenzenesulfonamide]
< 2000 | C[C@@H](NS(=O)(=O)c1ccc(Cl)cc1)[C@H]1CC[C@@H](c2ccnc3ccc(F)cc32)CC1 [Example 43, 4-chloro-N-((R)-1-((1s,4S)-4-(6-fluoroquinolin-4-yl)cyclohcxyl)ethyl)benzenesulfonamide]
